Measurements published in ChEMBL document CHEMBL1201862, “PubChem BioAssay data set” (2004).
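Method: 48-hour compound exposure of cells in 96-well plates, five concentrations, linear interpolation of endpoints. GI50 is the concentration that inhibits growth by half.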 Activity calls are given as the source filed them. Rule as the data show it: active = GI50 up to about 1.1 µM and inactive = higher.

Key:
Test in all cases: NCI tumour cell line growth inhibition, 48 h
[1] = test system: 786-0
[2] = test system: A498
[3] = test system: SNB-19
[4] = test system: NCI-H460
[5] = test system: HOP-62
[6] = test system: UACC-62
[7] = test system: NCI-H226
[8] = test system: CCRF-CEM
[9] = test system: CAKI-1
[10] = test system: HL-60
[11] = test system: SF-539
[12] = test system: OVCAR-4
[13] = test system: TK-10
[14] = test system: SK-MEL-5
[15] = test system: HT-29
[16] = test system: DLD-1
[17] = test system: SNB-75
[18] = test system: LOX IMVI
[19] = test system: SR

Row | Compound | GI50 [1] | GI50 [2] | GI50 [3] | GI50 [4] | GI50 [5] | GI50 [6] | GI50 [7] | GI50 [8] | GI50 [9] | GI50 [10] | GI50 [11] | GI50 [12] | GI50 [13] | GI50 [14] | GI50 [15] | GI50 [16] | GI50 [17] | GI50 [18] | GI50 [19]
1 | O=C(CC(=O)Nc1ccccc1O)Nc1ccccc1O | 19.6 µM (inactive) | > 100 µM (inactive) | > 100 µM (inactive) | 18.3 µM (inactive) | 80.9 µM (inactive) | 3.24 µM (inactive) | 63.1 µM (inactive) | 3.96 µM (inactive) | 68.1 µM (inactive) | 1.83 µM (inactive) | 19.1 µM (inactive) | 34.3 µM (inactive) | 53 µM (inactive) | 10 µM (inactive) | 27.9 µM (inactive) | 12.5 µM (inactive) | 18.6 µM (inactive) |  | 
2 | O=C(Cc1nc2ccccc2s1)Nc1cccc(C(F)(F)F)c1 | 14.2 µM (inactive) | 5.3 µM (inactive) | 16.9 µM (inactive) | 15.8 µM (inactive) | 17.9 µM (inactive) | 12.6 µM (inactive) | 21.8 µM (inactive) | 1.81 µM (inactive) | 16.7 µM (inactive) | 3.59 µM (inactive) | 18.8 µM (inactive) | 16.2 µM (inactive) | 21.2 µM (inactive) | 16.5 µM (inactive) | 17.1 µM (inactive) | 14.2 µM (inactive) | 13.7 µM (inactive) | 13.1 µM (inactive) | 
3 | FC(F)(F)P1C2C=CC(CC2)C1(F)F (configuration not stated) | > 100 µM (inactive) | > 100 µM (inactive) | > 100 µM (inactive) | > 100 µM (inactive) | > 100 µM (inactive) | > 100 µM (inactive) | > 100 µM (inactive) | > 100 µM (inactive) | > 100 µM (inactive) | > 100 µM (inactive) | > 100 µM (inactive) | > 100 µM (inactive) | > 100 µM (inactive) | > 100 µM (inactive) | > 100 µM (inactive) | > 100 µM (inactive) | > 100 µM (inactive) | > 100 µM (inactive) | 
4 | NC(=O)C#CC#CC#CCO | 1.59 µM (inactive) | 4.4 µM (inactive) | 14.9 µM (inactive) | 5.96 µM (inactive) | 10.9 µM (inactive) | 1.92 µM (inactive) | 11.6 µM (inactive) | 0.843 µM (active) | 1.92 µM (inactive) | 1.26 µM (inactive) |  | 1.83 µM (inactive) | 1.61 µM (inactive) | 1.98 µM (inactive) | 2.39 µM (inactive) | 0.807 µM (active) | 1.82 µM (inactive) | 2.09 µM (inactive) | 2.47 µM (inactive)
5 | COC(=O)CCC(=O)C(C#N)c1ccc(Cl)cc1Cl (configuration not stated) | > 100 µM (inactive) |  | > 100 µM (inactive) |  |  | > 100 µM (inactive) | > 100 µM (inactive) | > 100 µM (inactive) | > 100 µM (inactive) | > 100 µM (inactive) | > 100 µM (inactive) |  | > 100 µM (inactive) |  | 4.97 µM (inactive) | > 100 µM (inactive) | > 100 µM (inactive) | > 100 µM (inactive) | > 100 µM (inactive)
6 | CCOC(=O)NC(=O)c1cn(CCCOC(=O)CCCCCCCCCCC(=O)OCCCn2cc(C(=O)NC(=O)OCC)c(=O)[nH]c2=O)c(=O)[nH]c1=O | > 100 µM (inactive) |  | 49 µM (inactive) | > 100 µM (inactive) | > 100 µM (inactive) | > 100 µM (inactive) | > 100 µM (inactive) | > 100 µM (inactive) |  | > 100 µM (inactive) | > 100 µM (inactive) | > 100 µM (inactive) | > 100 µM (inactive) | > 100 µM (inactive) | > 100 µM (inactive) | > 100 µM (inactive) |  | > 100 µM (inactive) | > 100 µM (inactive)
7 | CC(C)OP(=O)(OC(C)C)/C(N)=N/Nc1ccc([N+](=O)[O-])cc1 | > 100 µM (inactive) |  | 77.4 µM (inactive) | 41.7 µM (inactive) | > 100 µM (inactive) | 83 µM (inactive) | 53 µM (inactive) | 98.2 µM (inactive) | > 100 µM (inactive) | 58.3 µM (inactive) | > 100 µM (inactive) | > 100 µM (inactive) | 27 µM (inactive) | 60.1 µM (inactive) |  | > 100 µM (inactive) | 81.7 µM (inactive) | > 100 µM (inactive) | > 100 µM (inactive)
8 | O=C(/C=C(\O)C(=O)O)/C=C(\O)c1ccccc1 | > 100 µM (inactive) | > 4.65 µM (inactive) | > 4.65 µM (inactive) | > 4.65 µM (inactive) | > 4.65 µM (inactive) | > 4.65 µM (inactive) | > 4.65 µM (inactive) | > 4.65 µM (inactive) | > 4.65 µM (inactive) | > 4.65 µM (inactive) |  | > 4.65 µM (inactive) | > 4.65 µM (inactive) |  | > 4.65 µM (inactive) | > 4.65 µM (inactive) | > 4.65 µM (inactive) | > 4.65 µM (inactive) | > 100 µM (inactive)
9 | c1ccc(C2N3CCCCC3[C@@H]3c4[nH]c5ccccc5c4CCN23)nc1 (some centres not stated) | > 100 µM (inactive) | > 100 µM (inactive) | > 100 µM (inactive) | > 100 µM (inactive) | > 100 µM (inactive) | 96.8 µM (inactive) |  | > 100 µM (inactive) | > 100 µM (inactive) | 59.7 µM (inactive) | > 100 µM (inactive) | > 100 µM (inactive) | > 100 µM (inactive) | > 100 µM (inactive) | > 100 µM (inactive) | > 100 µM (inactive) | 68.7 µM (inactive) |  | 
10 | CCCCCCCCCC1CC(=O)OC2=C1C(=O)CCC2 (configuration not stated) | > 100 µM (inactive) |  | > 100 µM (inactive) | > 100 µM (inactive) | > 100 µM (inactive) | > 100 µM (inactive) | > 100 µM (inactive) | > 100 µM (inactive) | > 100 µM (inactive) | > 100 µM (inactive) | > 100 µM (inactive) | > 100 µM (inactive) | > 100 µM (inactive) | > 100 µM (inactive) | > 100 µM (inactive) | > 100 µM (inactive) | > 100 µM (inactive) | > 100 µM (inactive) | > 100 µM (inactive)
11 | Clc1ccc(Cc2nc3ccccc3s2)c(Cl)c1 | 14.6 µM (inactive) | 17.2 µM (inactive) | 24.3 µM (inactive) | 19.8 µM (inactive) | 18.3 µM (inactive) | 14.1 µM (inactive) | 20.4 µM (inactive) | 5.21 µM (inactive) | 17.4 µM (inactive) | 15.5 µM (inactive) | 3.65 µM (inactive) | 13.2 µM (inactive) | 22.7 µM (inactive) | 17.5 µM (inactive) | 20.6 µM (inactive) | 15.3 µM (inactive) | 14.7 µM (inactive) | 16.7 µM (inactive) | 
12 | O=C(c1ccccc1)c1ccc2cccc(O)c2n1 | 15.8 µM (inactive) |  | 31.1 µM (inactive) |  | 52.4 µM (inactive) | 33.1 µM (inactive) | 38.5 µM (inactive) | 1.19 µM (inactive) | 76.4 µM (inactive) |  | 32.6 µM (inactive) | 67.8 µM (inactive) | 94.8 µM (inactive) | 22.9 µM (inactive) |  | 27 µM (inactive) | 30.5 µM (inactive) | 11.9 µM (inactive) | 15.4 µM (inactive)
